Entries after “also recorded” stand apart in the source; their conditions may differ.
Columns and labels:
ovariectomized rats [1] = experiment: ambient warming-induced cold-seeking test in a thermogradient apparatus; format: in vivo, rat; conditions: vs OVX Vehicle+Vehicle
Procedure: Experiments were performed in adult female Wistar rats (Envigo) weighting 240-280 g at the day of the first surgery (Day 0). Rats were housed three per cage in standard “show boxes”. The room was maintained on a 12:12 h light-dark cycle (lights-on at 6 AM) at 24±2° C. All protocols were approved by the Institutional Animal Care and Use Committee.
On Day 0, each rat was subjected to a bilateral ovariectomy or sham surgery, either with or without simultaneous implantation of a miniature data logger into the peritoneal cavity for body temperature measurement. On Day 7, the ovariectomized rats were implanted subcutaneously with a capsule containing either estradiol or vehicle, and the sham-operated rats were implanted with a capsule containing vehicle. On Days 6-15, the rats were habituated to experimental setups and procedures. The rats were taken into experiments between Days 16 and 20 (Experiments 1-3) or on Days 13 and 20 (Experiment 4); each rat was used in two experiments. Thermal discomfort was studied in one of two tests: the ambient warming-induced cold-seeking test in a thermogradient apparatus (cold-seeking test; Experiments 1-3) or the internal warming-induced cessation of warm sucrose intake test (sucrose intake cessation test; Experiment 4). Some ovariectomized rats were treated with a TRPV1. antagonist (capsazepine, Al 165442, or SB366791) or vehicle prior to a test. After experiments (Day 21), each rat used in Experiments 1-3 was euthanized, and the uterus was removed and weighed to confirm the completeness of the ovariectomy and the effectiveness of the estradiol replacement procedure.
The goal of Experiment 1 was to determine whether ovariectomy facilitates the cold-seeking behavior after heat exposure, and whether this facilitation (if it occurs) is estradiol-dependent. […]
Cold-seeking test. […] The preferred ambient temperature was recorded for 10 min. […]

[2] = as supported by animal studies; cited from earlier work
TRPV1 = TRPV1 (Homo sapiens, UniProt Q8NER1); conditions: cited from earlier work
ovariectomized rats [3] = experiment: uterus mass after ovariectomy and estradiol replacement; format: in vivo, rat; conditions: Experiment 1; ovariectomized rats with estradiol replacement; mean±SE; Day 21
Source text: On Day 0, each rat was subjected to a bilateral ovariectomy or sham surgery, either with or without simultaneous implantation of a miniature data logger into the peritoneal cavity for body temperature measurement. On Day 7, the ovariectomized rats were implanted subcutaneously with a capsule containing either estradiol or vehicle, and the sham-operated rats were implanted with a capsule containing vehicle. On Days 6-15, the rats were habituated to experimental setups and procedures. The rats were taken into experiments between Days 16 and 20 (Experiments 1-3) or on Days 13 and 20 (Experiment 4); each rat was used in two experiments. Thermal discomfort was studied in one of two tests: the ambient warming-induced cold-seeking test in a thermogradient apparatus (cold-seeking test; Experiments 1-3) or the internal warming-induced cessation of warm sucrose intake test (sucrose intake cessation test; Experiment 4). Some ovariectomized rats were treated with a TRPV1. antagonist (capsazepine, Al 165442, or SB366791) or vehicle prior to a test. […] All data arc expressed as mean±SE. The preferred ambient temperature and sucrose intake data analyzed by a two-way repeated-measurements ANOVA, followed by the Fisher or Newman-Keuls multiple comparisons test, as appropriate. The uterus mass data were analyzed by a one-way ANOVA followed by the Fisher test. […]

ovariectomized rats [4] = experiment: internal warming-induced cessation of warm sucrose intake test (sucrose intake cessation test); format: in vivo, rat; conditions: Experiment 4, SB366791 10 mg/kg by oral gavage 20 min prior to heat exposure (32.5° C., 10 min), vs OVX Vehicle+Vehicle
Procedure: Experiments were performed in adult female Wistar rats (Envigo) weighting 240-280 g at the day of the first surgery (Day 0). Rats were housed three per cage in standard “show boxes”. The room was maintained on a 12:12 h light-dark cycle (lights-on at 6 AM) at 24±2° C. All protocols were approved by the Institutional Animal Care and Use Committee. On Day 0, each rat was subjected to a bilateral ovariectomy or sham surgery, either with or without simultaneous implantation of a miniature data logger into the peritoneal cavity for body temperature measurement. On Day 7, the ovariectomized rats were implanted subcutaneously with a capsule containing either estradiol or vehicle, and the sham-operated rats were implanted with a capsule containing vehicle. On Days 6-15, the rats were habituated to experimental setups and procedures. […] Each burette was fitted with a stainless steel spout and filled with a 0.3 M sucrose solution at either 27 or 40° C., and sucrose solution consumption was recorded for 15 min. […] All data arc expressed as mean±SE. The preferred ambient temperature and sucrose intake data analyzed by a two-way repeated-measurements ANOVA, followed by the Fisher or Newman-Keuls multiple comparisons test, as appropriate. The uterus mass data were analyzed by a one-way ANOVA followed by the Fisher test. […]

Chain of TRPV1 (Q8NER1 whole entry, species assumed): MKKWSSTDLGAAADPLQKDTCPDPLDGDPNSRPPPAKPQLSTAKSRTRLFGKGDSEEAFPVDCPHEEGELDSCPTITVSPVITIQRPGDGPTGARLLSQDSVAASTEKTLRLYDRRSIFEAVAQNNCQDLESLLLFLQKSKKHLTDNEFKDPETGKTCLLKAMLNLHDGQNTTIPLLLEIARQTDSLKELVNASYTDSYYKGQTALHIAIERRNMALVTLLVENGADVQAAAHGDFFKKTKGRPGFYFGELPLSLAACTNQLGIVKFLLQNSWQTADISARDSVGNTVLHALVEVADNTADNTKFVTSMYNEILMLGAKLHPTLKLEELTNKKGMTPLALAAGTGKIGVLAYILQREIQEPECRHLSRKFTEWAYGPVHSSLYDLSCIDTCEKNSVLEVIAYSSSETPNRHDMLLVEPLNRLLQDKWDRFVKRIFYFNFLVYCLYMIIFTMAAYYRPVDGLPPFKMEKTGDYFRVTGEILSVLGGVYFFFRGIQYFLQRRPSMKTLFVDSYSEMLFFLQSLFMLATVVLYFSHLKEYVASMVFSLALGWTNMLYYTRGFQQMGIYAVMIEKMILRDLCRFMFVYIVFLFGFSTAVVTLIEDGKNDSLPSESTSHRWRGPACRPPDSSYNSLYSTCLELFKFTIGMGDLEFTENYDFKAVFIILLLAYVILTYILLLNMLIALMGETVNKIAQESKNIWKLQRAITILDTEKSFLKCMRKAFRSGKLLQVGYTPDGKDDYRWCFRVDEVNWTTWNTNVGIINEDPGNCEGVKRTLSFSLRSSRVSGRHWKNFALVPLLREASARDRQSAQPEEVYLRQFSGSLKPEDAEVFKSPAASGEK

SMILES: Cc1cc2c(NC(=O)N[C@@H]3CC(CF)(CF)Oc4cc(Cl)ccc43)cccc2cn1 [A1165442]
- heat exposure-induced cold-seeking behavior (preferred ambient temperature) (ovariectomized rats [1]; Experiment 3, A1165442 100 mg/kg by oral gavage prior to 10-min mild heat exposure (31° C.), 100 mg/kg): strongly attenuated; also recorded: treat this thermal discomfort; also recorded: significant difference

SMILES: FC(F)(F)c1ccc(-c2cc(Nc3ccc4ncsc4c3)ncn2)c(NCC2CCCCC2)c1 [AMG7905]
- effect on body temperature [2]: cause hypothermia
- effect on activation of TRPV1 by protons (TRPV1): potentiate the activation of TRPV1 by protons

SMILES: C[C@]12CC[C@@H]3c4ccc(O)cc4CC[C@H]3[C@@H]1CC[C@@H]2O [Estradiol, estradiol]
- uterus mass (ovariectomized rats [3]): 0.42 ± 0.02 g

SMILES: COc1cccc(NC(=O)/C=C/c2ccc(Cl)cc2)c1 [SB366791]
- cumulative intake of warm (40° C.) sucrose solution (avoidance of internal warming) (ovariectomized rats [4]): attenuated; also recorded: treat this thermal discomfort; also recorded: significant difference

SMILES: Oc1cc2c(cc1O)CN(C(=S)NCCc1ccc(Cl)cc1)CCC2 [capsazepine]
- heat exposure-induced cold-seeking behavior (preferred ambient temperature) (ovariectomized rats [1]; Experiment 2, capsazepine 40 mg/kg by oral gavage 30 min prior to 10-min mild heat exposure (31° C.)): strongly attenuated; also recorded: treat this thermal discomfort
- heat exposure-induced cold-seeking behavior (preferred ambient temperature) (ovariectomized rats [1]; Experiment 2, capsazepine 40 mg/kg by oral gavage 30 min prior to 10-min mild heat exposure (31° C.), listed as Capsazepine): significant difference

Reference: patent US12257216B2, “Treatment for hot flushes” (Dignity Health, priority 2017, dated 2025)
